Experimental data: ChEMBL document CHEMBL3044593, “Design, synthesis and anticonvulsant evaluation of novel 8-substituted-4(3H)-quinazolines” (Med Chem Res, 2012)
Calls of active or inactive are those of the source. No cut-off for these calls is given here.

Legend:
Mus musculus [1] = test: Anticonvulsant activity in Mus musculus (mouse) assessed as protection against picrotoxin-induced seizures at 0.5 mmol/kg, ip administered 30 min prior to seizure induction measured for 60 min relative to control; type: functional, organism-based
Mus musculus [2] = test: Anticonvulsant activity in Mus musculus (mouse) assessed as protection against strychnine-induced seizures at 0.5 mmol/kg, ip administered 30 min prior to seizure induction measured for 60 min relative to control; type: functional, organism-based
Mus musculus [3] = test: Anticonvulsant activity in Mus musculus (mouse) assessed as protection against pentylenetetrazol-induced seizures at 0.5 mmol/kg, ip administered 30 min prior to seizure induction measured for 60 min relative to control; type: functional
Mus musculus [4] = test: Anticonvulsant activity in Mus musculus (mouse) assessed as protection against maximal electroshock-induced seizures at 0.5 mmol/kg, ip administered 30 min prior to seizure induction measured for 60 min relative to control; type: functional
[5] = Therapeutic index, ratio of LD50 for ip dosed Mus musculus (mouse) to ED50 for protection against pentylenetetrazol-induced seizures in ip dosed mouse; type: organism-based; details: in vivo, read-out: Ratio LD50/ED50
Mus musculus [6] = test: Anticonvulsant activity in Mus musculus (mouse) assessed as protection against maximal electroshock-induced seizures at 1.4 mmol/kg, ip administered 30 min prior to seizure induction measured for 60 min relative to control; type: functional
Mus musculus [7] = test: Anticonvulsant activity in ip dosed Mus musculus (mouse) assessed as protection against pentylenetetrazol-induced seizures administered 30 min prior to seizure induction measured for 60 min; type: functional
[8] = Acute neurotoxicity in ip dosed Mus musculus (mouse) assessed as motor impairment administered 30 min prior to testing measured for 30 secs by chimney test; type: toxicity, organism-based; details: in vivo
Mus musculus [9] = test: Anticonvulsant activity in Mus musculus (mouse) assessed as protection against pentylenetetrazol-induced seizures at 1.4 mmol/kg, ip administered 30 min prior to seizure induction measured for 60 min relative to control; type: functional
Mus musculus [10] = test: Anticonvulsant activity in Mus musculus (mouse) assessed as protection against pentylenetetrazol-induced seizures at 1.5 mmol/kg, ip administered 30 min prior to seizure induction measured for 60 min relative to control; type: functional
Mus musculus [11] = test: Anticonvulsant activity in Mus musculus (mouse) assessed as protection against maximal electroshock-induced seizures at 1.5 mmol/kg, ip administered 30 min prior to seizure induction measured for 60 min relative to control; type: functional
[12] = Toxicity in ip dosed Mus musculus (mouse) assessed as mortality; type: organism-based; details: in vivo
Mus musculus [13] = test: Protective index, ratio of TD50 for ip dosed Mus musculus (mouse) to ED50 for protection against pentylenetetrazol-induced seizures in ip dosed mouse; type: functional

Compound	Activity (Mus musculus [1])	Activity (Mus musculus [2])	Activity (Mus musculus [3]) [%]	Activity (Mus musculus [4]) [%]	selectivity ratio [5]	Activity (Mus musculus [6]) [%]	ED50 (Mus musculus [7]) [µmol/kg]	TD50 at 0.5 min [8] [µmol/kg]	Activity (Mus musculus [9]) [%]	Activity (Mus musculus [10]) [%]	Activity (Mus musculus [11]) [%]	LD50 [12] [µmol/kg]	Ratio TD50/ED50 (Mus musculus [13])
Cc1ccccc1-n1c(C)nc2c(OCC(=O)NNC(=S)NN)cccc2c1=O	inactive	inactive	66	33	–	–	–	–	–	–	–	–	–
Cc1ccccc1-n1c(C)nc2c(OCC(=O)N/N=C\c3ccccc3F)cccc2c1=O	inactive	inactive	66	50	–	–	–	–	–	–	–	–	–
Cc1ccccc1-n1c(C)nc2c(OCC(=O)NCCO)cccc2c1=O	inactive	inactive	50	0	–	–	–	–	–	–	–	–	–
Cc1ccccc1-n1c(C)nc2ccccc2c1=O [METHAQUALONE]	–	–	–	–	1.4	100	1400	1600	100	–	–	–	–
Cc1ccccc1-n1c(C)nc2c(OCC(=O)NNC(N)=O)cccc2c1=O	inactive	inactive	50	0	–	–	–	–	–	–	–	–	–
CCCC(CCC)C(=O)[O-].[Na+] [VALPROATE SODIUM]	–	–	–	–	–	–	4800	9600	–	100	100	11900	–
CSC(=S)NNC(=O)COc1cccc2c(=O)n(-c3ccccc3C)c(C)nc12	inactive	inactive	100	100	3.34	–	350	670	–	–	–	1170	–
Cc1ccccc1-n1c(C)nc2c(OCC(=O)N/N=C\c3ccccc3)cccc2c1=O	inactive	inactive	50	0	–	–	–	–	–	–	–	–	–
COc1ccccc1/C=N\NC(=O)COc1cccc2c(=O)n(-c3ccccc3C)c(C)nc12	inactive	inactive	33	0	–	–	–	–	–	–	–	–	–
CCOC(=O)NNC(=O)COc1cccc2c(=O)n(-c3ccccc3C)c(C)nc12	inactive	inactive	100	100	1.51	–	390	600	–	–	–	1020	–
Cc1ccccc1-n1c(C)nc2c(OCC(=O)NNC(=O)NN)cccc2c1=O	inactive	inactive	50	0	–	–	–	–	–	–	–	–	–
Cc1ccccc1-n1c(C)nc2c(OCC(=O)NN)cccc2c1=O	inactive	inactive	100	50	10.2	–	290	790	–	–	–	2960	2.7
